From the supplement of paper PMC10307832

Tests used:
Test in all cases: relative viability (nuclei count vs DMSO), 5 days (fraction); higher = more cells survive
[1] = compound: C#Cc1cccc(Nc2ncnc3cc(OC)c(OCCCCCCC(=O)NO)cc23)c1 [CUDC-101]
Outline: (§1)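 Viability here means nuclei in treated wells divided by nuclei in vehicle wells, reported as the median across plates. Only plates with control CV below 25% and at least one doubling passed. Lung cancer cell lines in 1536-well plates were exposed to five √10-spaced library-drug doses for 5 days and counted from 4× Hoechst images in MetaXpress.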

[2] = compound: C1=CC=C2C(=C1)N=C(S2)C(C#N)C3=NC(=NC=C3)NCCC4=CN=CC=C4
Outline: as §1

[3] = compound: COc1cc(N2CCC(N3CCN(C)CC3)CC2)ccc1Nc1ncc(Cl)c(Nc2ccccc2S(=O)(=O)C(C)C)n1 [NVP-TAE684]
Outline: as §1

[4] = compound: COc1cc2/c(=N/c3ccc(Br)cc3F)nc[nH]c2cc1OCC1CCN(C)CC1 [Vandetanib]
Outline: as §1

## HCC-15
[1]; 0.01 µM
  relative viability: 0.969
[1]; 0.03162 µM
  relative viability: 0.989
[1]; 0.1 µM
  relative viability: 1.01
[1]; 0.3162 µM
  relative viability: 1.11
[1]; 1 µM
  relative viability: 0.897
[2]; 0.005 µM
  relative viability: 0.96
[2]; 0.01581 µM
  relative viability: 0.989
[2]; 0.05 µM
  relative viability: 1.03
[2]; 0.1581 µM
  relative viability: 1.12
[2]; 0.5 µM
  relative viability: 0.919
[3]; 0.2 µM
  relative viability: 0.913
[3]; 0.6325 µM
  relative viability: 0.973
[3]; 2 µM
  relative viability: 0.808
[4]; 0.02 µM
  relative viability: 1.01
[4]; 0.06325 µM
  relative viability: 0.919
[4]; 0.2 µM
  relative viability: 0.982
[4]; 0.6325 µM
  relative viability: 1
[4]; 2 µM
  relative viability: 1.03

## HCC-44
[1]; 0.01 µM
  relative viability: 0.858
[1]; 0.03162 µM
  relative viability: 1.03
[1]; 0.1 µM
  relative viability: 1.02
[1]; 0.3162 µM
  relative viability: 0.951
[1]; 1 µM
  relative viability: 0.968
[2]; 0.005 µM
  relative viability: 0.999
[2]; 0.01581 µM
  relative viability: 1.03
[2]; 0.05 µM
  relative viability: 1.04
[2]; 0.1581 µM
  relative viability: 1.05
[2]; 0.5 µM
  relative viability: 1
[3]; 0.2 µM
  relative viability: 1.09
[3]; 0.6325 µM
  relative viability: 0.969
[3]; 2 µM
  relative viability: 0.749
[4]; 0.02 µM
  relative viability: 0.939
[4]; 0.06325 µM
  relative viability: 0.965
[4]; 0.2 µM
  relative viability: 1.02
[4]; 0.6325 µM
  relative viability: 0.998
[4]; 2 µM
  relative viability: 0.966

## NCI-H1792
[1]; 0.01 µM
  relative viability: 0.928
[1]; 0.03162 µM
  relative viability: 0.896
[1]; 0.1 µM
  relative viability: 0.853
[1]; 0.3162 µM
  relative viability: 1.04
[1]; 1 µM
  relative viability: 0.809
[2]; 0.01581 µM
  relative viability: 0.747
[2]; 0.05 µM
  relative viability: 0.924
[2]; 0.1581 µM
  relative viability: 1.2
[2]; 0.5 µM
  relative viability: 0.693
[3]; 0.2 µM
  relative viability: 0.844
[3]; 0.6325 µM
  relative viability: 0.708
[3]; 2 µM
  relative viability: 0.594
[4]; 0.02 µM
  relative viability: 0.878
[4]; 0.06325 µM
  relative viability: 0.829
[4]; 0.2 µM
  relative viability: 0.974
[4]; 0.6325 µM
  relative viability: 0.858
[4]; 2 µM
  relative viability: 0.874

## NCI-H2347
[1]; 0.01 µM
  relative viability: 1.1
[1]; 0.03162 µM
  relative viability: 1.04
[1]; 0.1 µM
  relative viability: 1.07
[1]; 0.3162 µM
  relative viability: 1.11
[1]; 1 µM
  relative viability: 0.972
[2]; 0.005 µM
  relative viability: 1.11
[2]; 0.01581 µM
  relative viability: 1.09
[2]; 0.05 µM
  relative viability: 0.995
[2]; 0.1581 µM
  relative viability: 1.05
[2]; 0.5 µM
  relative viability: 1.02
[3]; 0.2 µM
  relative viability: 0.964
[3]; 0.6325 µM
  relative viability: 0.932
[3]; 2 µM
  relative viability: 0.986
[4]; 0.02 µM
  relative viability: 1.03
[4]; 0.06325 µM
  relative viability: 0.785
[4]; 0.2 µM
  relative viability: 1.03
[4]; 0.6325 µM
  relative viability: 1.06
[4]; 2 µM
  relative viability: 0.988

## SW 900
[1]; 0.01 µM
  relative viability: 0.927
[1]; 0.03162 µM
  relative viability: 0.881
[1]; 0.1 µM
  relative viability: 0.803
[1]; 0.3162 µM
  relative viability: 0.878
[1]; 1 µM
  relative viability: 0.624
[2]; 0.005 µM
  relative viability: 0.899
[2]; 0.01581 µM
  relative viability: 0.845
[2]; 0.05 µM
  relative viability: 0.885
[2]; 0.1581 µM
  relative viability: 1
[2]; 0.5 µM
  relative viability: 0.823
[3]; 0.2 µM
  relative viability: 0.96
[3]; 0.6325 µM
  relative viability: 0.754
[3]; 2 µM
  relative viability: 0.776
[4]; 0.02 µM
  relative viability: 0.898
[4]; 0.06325 µM
  relative viability: 0.887
[4]; 0.2 µM
  relative viability: 0.65
[4]; 0.6325 µM
  relative viability: 0.93
[4]; 2 µM
  relative viability: 0.775

## RERF-LC-KJ
[1]; 0.01 µM
  relative viability: 1
[1]; 0.03162 µM
  relative viability: 1.02
[1]; 0.1 µM
  relative viability: 1.01
[1]; 0.3162 µM
  relative viability: 0.98
[1]; 1 µM
  relative viability: 0.801
[2]; 0.005 µM
  relative viability: 0.988
[2]; 0.01581 µM
  relative viability: 1.04
[2]; 0.05 µM
  relative viability: 0.953
[2]; 0.1581 µM
  relative viability: 1.07
[2]; 0.5 µM
  relative viability: 0.895
[3]; 0.2 µM
  relative viability: 0.971
[3]; 0.6325 µM
  relative viability: 0.969
[3]; 2 µM
  relative viability: 0.79
[4]; 0.02 µM
  relative viability: 0.962
[4]; 0.06325 µM
  relative viability: 0.954
[4]; 0.2 µM
  relative viability: 0.963
[4]; 0.6325 µM
  relative viability: 0.927
[4]; 2 µM
  relative viability: 0.815

## NCI-H522
[1]; 0.01 µM
  relative viability: 0.879
[1]; 0.03162 µM
  relative viability: 1.09
[1]; 0.1 µM
  relative viability: 1.01
[1]; 0.3162 µM
  relative viability: 0.979
[1]; 1 µM
  relative viability: 0.743
[2]; 0.005 µM
  relative viability: 0.958
[2]; 0.01581 µM
  relative viability: 0.795
[2]; 0.05 µM
  relative viability: 0.761
[2]; 0.1581 µM
  relative viability: 1.11
[2]; 0.5 µM
  relative viability: 0.878
[3]; 0.2 µM
  relative viability: 0.953
[3]; 0.6325 µM
  relative viability: 0.874
[3]; 2 µM
  relative viability: 0.923
[4]; 0.02 µM
  relative viability: 0.915
[4]; 0.06325 µM
  relative viability: 1.03
[4]; 0.2 µM
  relative viability: 0.91
[4]; 0.6325 µM
  relative viability: 0.933
[4]; 2 µM
  relative viability: 0.97

## NCI-H1666
[1]; 0.01 µM
  relative viability: 1.04
[1]; 0.03162 µM
  relative viability: 0.92
[1]; 0.1 µM
  relative viability: 0.992
[1]; 0.3162 µM
  relative viability: 1.05
[1]; 1 µM
  relative viability: 0.858
[2]; 0.005 µM
  relative viability: 1.09
[2]; 0.01581 µM
  relative viability: 0.988
[2]; 0.05 µM
  relative viability: 1.04
[2]; 0.1581 µM
  relative viability: 1.01
[2]; 0.5 µM
  relative viability: 0.99
[3]; 0.2 µM
  relative viability: 0.922
[3]; 0.6325 µM
  relative viability: 0.933
[3]; 2 µM
  relative viability: 0.812
[4]; 0.02 µM
  relative viability: 0.991
[4]; 0.06325 µM
  relative viability: 0.932
[4]; 0.2 µM
  relative viability: 0.891
[4]; 0.6325 µM
  relative viability: 1.01
[4]; 2 µM
  relative viability: 0.918

## LC-2-ad
[1]; 0.01 µM
  relative viability: 1.01
[1]; 0.03162 µM
  relative viability: 0.989
[1]; 0.1 µM
  relative viability: 1.03
[1]; 0.3162 µM
  relative viability: 0.963
[1]; 1 µM
  relative viability: 0.758
[2]; 0.005 µM
  relative viability: 0.923
[2]; 0.01581 µM
  relative viability: 0.9
[2]; 0.05 µM
  relative viability: 0.999
[2]; 0.1581 µM
  relative viability: 1.11
[2]; 0.5 µM
  relative viability: 0.961
[3]; 0.2 µM
  relative viability: 0.975
[3]; 0.6325 µM
  relative viability: 0.848
[3]; 2 µM
  relative viability: 0.654
[4]; 0.02 µM
  relative viability: 1.02
[4]; 0.06325 µM
  relative viability: 0.893
[4]; 0.2 µM
  relative viability: 1.01
[4]; 0.6325 µM
  relative viability: 0.868
[4]; 2 µM
  relative viability: 0.438
